Assay results from PMC11106165, “Repurposing the KCa3.1 Blocker Senicapoc for Ischemic Stroke” (Translational Stroke Research, 2023).

Key:
human tPA = target: T1, human tPA (Homo sapiens, UniProt P00750); assay: Chromogenic tPA activity assay; assay type: biochemical; details: 30-min assay
T1 construct: purchased Abcam ab108905
Excerpt: The commercially available tPA Activity Assay Kit (Abcam, ab108905) was used to assess whether senicapoc and TRAM-34 affect the ability of human tPA to cleave its substrate plasminogen similar to protocols published by Lapchak and Boitano [38] and Lapchak et al.. Reactions were run in optically clear flat-bottom 96-well plates (Corning, Catalog #3904). Human plasminogen activator inhibitor-1 (PAI-1; Sigma-Aldrich CC4075) was used as a positive control. Human plasminogen, the chromogenic plasmin substrate, and human tPA were included in the tPA Activity Assay Kit. […] The reactions were pre-incubated at 37 °C for 5 min prior to the addition of the chromogenic plasmin substrate and subsequently placed in a heated SpectraMax M5 spectrophotometer. Absorbances at 405 nm were measured every 30 s for 30 min.

[1] = parameters: method as in PMID 22675649; details: cited from earlier work
rats or mice, tMCAO = tested on: rats or mice, tMCAO; parameters: method as in PMID 21750563, PMID 26661208; details: cited from earlier work

T1 sequence (P00750 36-562): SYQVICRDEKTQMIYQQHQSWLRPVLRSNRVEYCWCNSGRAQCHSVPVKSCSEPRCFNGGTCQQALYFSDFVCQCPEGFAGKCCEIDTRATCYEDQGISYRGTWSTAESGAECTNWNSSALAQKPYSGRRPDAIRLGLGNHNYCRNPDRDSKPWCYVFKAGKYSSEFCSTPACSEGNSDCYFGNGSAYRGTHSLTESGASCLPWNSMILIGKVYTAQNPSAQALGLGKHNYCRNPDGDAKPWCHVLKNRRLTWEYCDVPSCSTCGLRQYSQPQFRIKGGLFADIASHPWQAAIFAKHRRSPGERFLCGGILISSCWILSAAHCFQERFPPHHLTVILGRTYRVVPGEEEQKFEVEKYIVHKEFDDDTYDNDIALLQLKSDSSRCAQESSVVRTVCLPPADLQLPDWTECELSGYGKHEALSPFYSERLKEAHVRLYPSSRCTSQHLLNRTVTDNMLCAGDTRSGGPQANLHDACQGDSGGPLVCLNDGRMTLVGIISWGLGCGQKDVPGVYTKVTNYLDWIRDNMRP

Compound | effect on tPA activity (absorbance at 405 nm) (human tPA; 0.5 μM and 5 μM, PBS with 10% human serum) | metabolic stability [1] | oral availability [1] | half-life ([1]; rats and primates) | reduction in infarct area (rats or mice, tMCAO; MCAO, 11 animals per group) | infarct area (rats or mice, tMCAO; rats or mice, 8 days after tMCAO with reperfusion) | effect on tPA activity (absorbance at 405 nm) (human tPA; positive control)
Clc1ccccc1C(c1ccccc1)(c1ccccc1)n1cccn1 [TRAM-34] | do not interfere with tPA activity | metabolic instability | not orally available | ~ 2 h | ~ 50% | significantly smaller infarct areas | –
plasminogen activator inhibitor-1 [PAI-1] | – | – | – | – | – | – | strongly inhibited
